Laboratory results reported in patent US20260327250A1, “3-ETHYLAMINO-INDOLE DIMERS AS SEROTONERGIC AGENTS USEFUL FOR THE TREATMENT OF DISORDERS RELATED THERETO” (MINDSET PHARMA INC., priority 2022, published 2026).
Counter-ions that a name gives are not always drawn. Like-named read-outs stand apart in the source and are kept apart here.

Legend:
human 5-HT2A receptor = human 5-HT2A receptor (Homo sapiens, UniProt P28223); assay: Human 5-HT2A radioligand binding assay ([3H]-ketanserin)
Procedure: The objective of this study was to evaluate the binding properties of exemplary compounds of Formula I on 5-hydroxytryptamine receptor 2A (5-HT2A).
• 1. The assay buffer was prepared following the table below.
UniFilter-96 GF/B plate was pretreated: • i. 50 μl/well of 0.5% (v/v) PEI was added to UniFilter-96 GF/C plates. The plates were sealed and incubated at 4° C. for 3 hrs. • ii. After incubation, the plates were washed 3 times with ice-cold wash buffer (50 mM Tris, pH7.4). • 4. […] Cell membrane was diluted with assay buffer and 330 μl/well was added to 96 round deep well plates to reach a concentration of 20 μg/well. • ii. 8 concentrations of reference or test compounds were prepared and 110 μl/well was added to 96 round deep well plates. • iii. […] The plate was centrifuged at 1000 rpm for 30 secs and then agitated at 600 rpm, R.T. for 5 min. • 6. […] The filter plates were sealed and 40 μl/well of scintillation cocktail was added. • 10. The plate was read by using a Microbeta^2 microplate counter.
• 1. […] The IC50 was determined by fitting percentage of inhibition as a function of compound concentrations with Hill equation using XLfit.

[1] = target: T1, human 5-hydroxytryptamine receptor 2A (5-HT2A) (Homo sapiens, UniProt P28223); assay: Human 5-HT2A functional FLIPR assay (agonist mode); format: cell-based; details: for RFU@10 μM: footnote: Curve fitting with activation (%) @ 10 mM with RFU
T1 construct: expressed in transfected cells; host or cells: HTR2A&Ga15-HEK293
Procedure: To assess the potential excitatory effects of compounds targeting on human 5-hydroxytryptamine receptor 2A (5-HT2A) under agonist mode
HTR2A&Ga15-HEK293 cells were cultured in DMEM medium containing 10% dialyzed FBS and 1× penicillin-streptomycin, 100 μg/mL Hygromycin B and 300 μg/mL G418. The cells were passaged about three times a week, maintained between ~30% to ~90% confluence.
• 1. The cell culture medium (DMEM medium containing 10% dialyzed FBS and 1× penicillin-streptomycin, 100 μg/mL Hygromycin B and 300 μg/mL G418), TrypLE™ Express and DPBS was warmed to R. T. in advance. • 2. For induction, 1 μg/ml tetracycline (final concentration) was added to cell culture medium and incubated for 48 hours prior to seeding cells into plate at 37° C., 5% (v/v) CO2. The cell culture medium was removed from flask. Washed cells with DPBS. • 3. 2 mL TrypLE™ Express was added to the flask, mixed well by gentle shaking and cells incubated at 37° C. for a few minutes. • 4. The cells morphological change was checked under microscope, and the digestion stopped by adding 4 mL cell culture medium to the flask when most of cells turned to round. • 5. The cell suspension was transferred into a 15 mL centrifuge tube, and then centrifuged at 1,200 rpm for 5 minutes. • 6. The supernatant was removed. The cell pellet was resuspended with 2 mL cell culture medium. • 7. The cell density was counted using cell counter. Only cells with >85% viability were used for the assay. • 8. Cells were diluted to 6.67×10^5/mL with cell culture medium. • 9. 30 μL/well cell suspensions was added into a 384-well cell plate (The cell density was 20,000 cells/well). • 10. The cell plate was incubated overnight at 37° C., 5% (v/v) CO2. 2.3 Cell handling • 1. On the day of experiments, culture medium was removed from the cell plate. • 12. 10 μL of assay buffer (20 mM HEPES, in 1× HBSS, pH 7.4) was added to each well of the cell plate. • 3. 2×dye solution was prepared following the manual of the FLIPR® Calcium 6 Assay Kit: • i. The dye was diluted with assay buffer. • ii. Probenecid was added to the final concentration of 5 mM. • iii. Vortexed vigorously for 1-2 minutes. • 4. 10 μL of 2× dye solution was added to each well of the cell plate • 5. The cell plate was placed on plate shaker, and was shaken at 600 rpm for 2 minutes. • 6. The plate was incubated at 37° C. for 2 hours followed by an additional 15-minute incubation at 25° C. 2.4 Prepare 3×compound • 1, Serotonin HCl was prepared to the concentration of 10 mM with DMSO. • 2. The test compounds were prepared to the concentration of 10 mM with DMSO. • 3. The compounds were added to a 384-well compound source plate. • 4. 3-folds serial dilutions were performed with DMSO. • 5. 90 nL/well of serial diluted compounds were transferred from source plate to a 384-well compound plate by using an Echo. • 6. 30 μL/well of assay buffer (20 mM HEPES in 1× HBSS, pH 7.4) were added to the compound plate. • 7. Mixed on the plate-on-plate shaker for 2 minutes.
• 1, After the cells were incubated with dye solution, the cell plate, compound plate containing 3×compounds and FLIPR tips were placed into FLIPR. • 2, 10 μL of 3×compounds were transferred from the compound plate to the cell plate by FLIPR. • 3, The plate was read for 160 sec with 1 sec interval to obtain the data of agonist mode.
• 1, The normalized fluorescence reading (RFU) was calculated as shown below, wherein Fmax and Fmin stand for maximum and minimum of calcium signal during defined time window:
[formula] • 2. EC50 was calculated by fitting RFU against log of compound concentrations with Hill equation using XLfit.

[2] = [3H]-ketanserin, 27° C., 90 min, read-out: h5-HT2A, IC50
[3] = FLIPR, agonist mode, ND = Not detected, read-out: h5-HT2A, EC50

Sequence of human 5-HT2A receptor (P28223 whole entry): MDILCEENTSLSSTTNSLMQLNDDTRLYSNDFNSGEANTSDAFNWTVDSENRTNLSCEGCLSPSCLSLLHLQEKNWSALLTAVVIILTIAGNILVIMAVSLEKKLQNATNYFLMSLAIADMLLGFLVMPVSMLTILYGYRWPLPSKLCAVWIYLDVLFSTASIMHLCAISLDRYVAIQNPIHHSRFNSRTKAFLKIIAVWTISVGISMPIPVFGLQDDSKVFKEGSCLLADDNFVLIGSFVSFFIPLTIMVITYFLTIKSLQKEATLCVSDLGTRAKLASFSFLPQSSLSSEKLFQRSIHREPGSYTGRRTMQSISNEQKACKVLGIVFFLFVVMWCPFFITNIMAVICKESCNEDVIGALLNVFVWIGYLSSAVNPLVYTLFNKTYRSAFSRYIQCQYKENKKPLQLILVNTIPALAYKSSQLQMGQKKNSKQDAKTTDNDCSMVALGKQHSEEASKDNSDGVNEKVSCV
T1 sequence (P28223 whole entry): as above

SMILES | IC50 (human 5-HT2A receptor; [2]) [nM] | RFU@10 μM [1] [RFU] | EC50 [1, 3] [nM] | IC50 (human 5-HT2A receptor) [nM] | EC50 [1] [nM]
CC(C)N(CCc1c[nH]c2cccc(O)c12)C(C)C [Compound 7] | 6410 | 6358 | 81.4 |  | 
CN(C)CCc1c[nH]c2cccc(OC(=O)CCCC(=O)Oc3cccc4[nH]cc(CCN(C)C)c34)c12 [Compound I-24, Bis(3-(2-(dimethylamino)ethyl)-1H-indol-4-yl) glutarate] | 127 | 3061 | 24.9 |  | 
CC(C)N(CCc1c[nH]c2cccc(OC(=O)CCCC(=O)Oc3cccc4[nH]cc(CCN(C(C)C)C(C)C)c34)c12)C(C)C [Compound I-37, Bis(3-(2-(diisopropylamino)ethyl)-1H-indol-4-yl) glutarate dihydrochloride] |  | 6768 |  | 547 | 158
CN(C)CCc1c[nH]c2cccc(O)c12 [Psilocin, 4-hydroxy-N,N-dimethyltryptamine, reference compound] |  | 308 |  |  | 
CN(C)CCc1c[nH]c2cccc(OP(=O)(O)O)c12 [Psilocybin] |  | 257 |  |  | 
